As a reminder, the EC50 is the concentration giving half of the maximal effect. Read a low EC50 as a more potent agent.

The subject of assay [1] is MCF7. In words: Cytotoxicity against human MCF7 cells after 96 hrs by SRB assay. The format is functional, cell-based. Particulars: MCF7, 96 h.
Assay [2] has as its system A549. In words: Cytotoxicity against human A549 cells after 96 hrs by SRB assay. The format is functional, cell-based. The settings on record: A549, 96 h. Background: In SRB staining, fixed cells bind dye roughly in proportion to their protein.
For assay [3], the system named is HT-29. In words: cells. The settings on record: Homo sapiens, HT-29, 96 h.
Description: Cytotoxicity against human HT-29 cells after 96 hrs by SRB assay
Assay [4] concerns 518A2. In words: Cytotoxicity against human 518A2 cells after 96 hrs by SRB assay. Particulars: 518A2, 96 h. The format is functional, cell-based.
Assay [5] relates to A2780. As to the kind of experiment: Cytotoxicity against human A2780 cells after 96 hrs by SRB assay. The settings on record: A2780, 96 h. The format is functional, cell-based.
Assay [6] has as its system NIH3T3. In words: Cytotoxicity against mouse NIH/3T3 cells after 96 hrs by SRB assay. The format is cell-based. The settings on record: NIH3T3, 96 h.
The test system of assay [7] is A2780. As to the kind of experiment: Induction of apoptosis in human A2780 cells assessed as late apoptotic cells at 5 uM after 24 hrs by Annexin V-FITC/propidium iodide staining based flow cytometry (reference value: 6.6%). The format is functional.
For assay [8], the system named is A2780. As to the kind of experiment: Induction of apoptosis in human A2780 cells assessed as necrotic cells at 5 uM after 24 hrs by Annexin V-FITC/propidium iodide staining based flow cytometry (reference value: 1.1%). It is filed as functional. On the technique in general: In flow cytometry, cells or beads pass a laser one at a time.
The test system of assay [9] is A2780. As to the kind of experiment: Induction of apoptosis in human A2780 cells assessed as early apoptotic cells at 5 uM after 24 hrs by Annexin V-FITC/propidium iodide staining based flow cytometry (reference value: 3.5%). It is filed as functional.
For assay [10], the system named is A2780. As to the kind of experiment: Cytotoxicity against human A2780 cells assessed as morphological changes at 5 uM after 24 hrs by acridine orange/propidium iodide staining based fluorescence microscopic method. The format is functional, cell-based.
Assay [11] deals with A2780. In words: Induction of apoptosis in human A2780 cells assessed as live cells at 5 uM after 24 hrs by Annexin V-FITC/propidium iodide staining based flow cytometry (reference value: 88.7%). The format is functional.
The subject of assay [12] is A2780. As to the kind of experiment: Induction of apoptosis in human A2780 cells assessed as increase in caspase-3 activity at 5 uM after 24 hrs by flow cytometry. It is filed as functional, cell-based.
The test system of assay [13] is A2780. In words: Cell cycle arrest in human A2780 cells at 5 uM after 24 hrs by propidium iodide staining based flow cytometry. The format is functional.
Assay [14] has as its system A2780. As to the kind of experiment: Induction of apoptosis in human A2780 cells assessed as late apoptotic cells at 8 uM after 24 hrs by Annexin V-FITC/propidium iodide staining based flow cytometry (reference value: 6.6%). The format is functional.
Assay [15] has as its system A2780. As to the kind of experiment: Cytotoxicity against human A2780 cells assessed as morphological changes at 8 uM after 24 hrs by acridine orange/propidium iodide staining based fluorescence microscopic method. It is filed as functional, cell-based.
Assay [16] concerns A2780. As to the kind of experiment: Cell cycle arrest in human A2780 cells at 8 uM after 24 hrs by propidium iodide staining based flow cytometry. The format is functional.
Assay [17] has as its system A2780. As to the kind of experiment: Induction of apoptosis in human A2780 cells assessed as necrotic cells at 8 uM after 24 hrs by Annexin V-FITC/propidium iodide staining based flow cytometry (reference value: 1.1%). It is filed as functional.
Assay [18] relates to A2780. In words: Induction of apoptosis in human A2780 cells assessed as early apoptotic cells at 8 uM after 24 hrs by Annexin V-FITC/propidium iodide staining based flow cytometry (reference value: 3.5%). The format is functional.
In assay [19] the test system is A2780. As to the kind of experiment: Induction of apoptosis in human A2780 cells assessed as increase in caspase-3 activity at 8 uM after 24 hrs by flow cytometry. It is filed as functional, cell-based.
In assay [20] the test system is A2780. In words: Induction of apoptosis in human A2780 cells assessed as live cells at 8 uM after 24 hrs by Annexin V-FITC/propidium iodide staining based flow cytometry (reference value: 88.7%). The format is functional.

Calls of active or inactive are those of the source. The calls are words filed in the database; no cut-off is given here.

As for `CC(=O)O[C@H]1CC[C@]2(C)[C@H]3CC[C@@H]4[C@H]5[C@H](C(C)=O)CC[C@]5(C(=O)NCCN(C)C)CC[C@@]4(C)[C@]3(C)CC[C@H]2C1(C)C`, the EC50 in assay [1] stood at 2.5 µM; in assay [2], 2.9 µM; in assay [3], 4.5 µM; in assay [4], 3.7 µM; in assay [5], 3.8 µM; in assay [6], 1.4 µM.
`COC(=O)[C@]12CC[C@@H]([C@H](C)N)[C@@H]1[C@H]1CC[C@@H]3[C@@]4(C)CC[C@H](OC(C)=O)C(C)(C)[C@@H]4CC[C@@]3(C)[C@]1(C)CC2`: the EC50 amounted to 4.6 µM in [1]; 6.6 µM in assay [2]; 2 µM in assay [3]; 6.3 µM in assay [4]; 6 µM in [5]; 4.4 µM in assay [6].
Consider `COC(=O)[C@]12CC[C@@H](/C(C)=N/O)[C@@H]1[C@H]1CC[C@@H]3[C@@]4(C)CC[C@H](OC(C)=O)C(C)(C)[C@@H]4CC[C@@]3(C)[C@]1(C)CC2`, for which the EC50 turned out to be 12.4 µM in [1]; 8.2 µM in [2]; 14.4 µM in assay [3]; 7.8 µM in assay [4]; 12.2 µM in assay [5]; 14 µM in assay [6].
As for `CC(=O)[C@@H]1CC[C@]2(C(=O)NCCN)CC[C@]3(C)[C@H](CC[C@@H]4[C@@]5(C)CC[C@H](O)C(C)(C)[C@@H]5CC[C@]43C)[C@@H]12`, the EC50 stood at 2.4 µM in assay [1]; 2.6 µM in [2]; 2.3 µM in assay [3]; 2.5 µM in [4]; 2.5 µM in assay [5]; 2.5 µM in [6].
Turning to `CC(=O)[C@@H]1CC[C@]2(C(=O)NCCN3CCCC3)CC[C@]3(C)[C@H](CC[C@@H]4[C@@]5(C)CC[C@H](O)C(C)(C)[C@@H]5CC[C@]43C)[C@@H]12`, the Activity in assay [7] is 47.4%; in [8], 4.2%; in assay [9] it was 7.1%; in assay [11], 41.3%. Further, the EC50 came out at 2.1 µM in assay [1]; 2.3 µM in assay [2]; 2.8 µM in assay [3]; 2.5 µM in [4]; 2.2 µM in assay [5]; 2.8 µM in [6]. Moreover, the outcome in assay [10] and in [12] was Active. The result in assay [13] was inactive.
For the compound `COC(=O)[C@]12CC[C@@H]([C@@H](C)N)[C@@H]1[C@H]1CC[C@@H]3[C@@]4(C)CC[C@H](OC(C)=O)C(C)(C)[C@@H]4CC[C@@]3(C)[C@]1(C)CC2`, the EC50 in [1] stood at 5.1 µM; in assay [2], 5.3 µM; in [3], 6.3 µM; in assay [4], 4.1 µM; in assay [5], 4.7 µM; in assay [6], 5.6 µM. Further, the Activity in assay [14] is given as 16.6%; in assay [17], 1.4%; in assay [18] it was 23.7%; in [20], 58.1%. Besides, the result in assay [15] and in [19] was Active. Besides, in assay [16], the outcome was inactive.
Turning to `CC(=O)O[C@H]1CC[C@]2(C)[C@H]3CC[C@@H]4[C@H]5[C@H](/C(C)=N\O)CC[C@]5(C(=O)OCc5ccccc5)CC[C@@]4(C)[C@]3(C)CC[C@H]2C1(C)C`, the EC50 in assay [1] is 7.3 µM; in assay [2], 11.2 µM; in assay [3] it was 20.1 µM; in [4] it was 16.5 µM; in [5], 9.9 µM; in assay [6] it was 14 µM.
For the compound `CC(=O)O[C@H]1CC[C@]2(C)[C@H]3CC[C@@H]4[C@H]5[C@H]([C@@H](C)N)CC[C@]5(C(=O)O)CC[C@@]4(C)[C@]3(C)CC[C@H]2C1(C)C`, the EC50 in assay [1] was over 30 µM; in assay [2], over 30 µM; in [3], 20.7 µM; in assay [4] it was 23.2 µM; in [5] it was over 30 µM; in assay [6] it was 27.2 µM.
Take `CC(=O)[C@@H]1CC[C@]2(C(=O)OCc3ccccc3)CC[C@]3(C)[C@H](CC[C@@H]4[C@@]5(C)CC[C@H](N)C(C)(C)[C@@H]5CC[C@]43C)[C@@H]12`: the EC50 in assay [1] was 1.8 µM; in assay [2], 2.1 µM; in [3], 1.5 µM; in assay [4] it was 1.9 µM; in assay [5], 2.2 µM; in assay [6], 2.3 µM.
With `CC(=O)O[C@H]1CC[C@]2(C)[C@H]3CC[C@@H]4[C@H]5[C@H](/C(C)=N/O)CC[C@]5(C(=O)OCc5ccccc5)CC[C@@]4(C)[C@]3(C)CC[C@H]2C1(C)C`, the EC50 turned out to be 6.8 µM in assay [1]; 7.9 µM in [2]; 12.3 µM in assay [3]; 9 µM in assay [4]; 6.1 µM in assay [5]; 6.1 µM in [6].
As to `CC(=O)[C@@H]1CC[C@]2(C(=O)NCCN(C)C)CC[C@]3(C)[C@H](CC[C@@H]4[C@@]5(C)CC[C@H](O)C(C)(C)[C@@H]5CC[C@]43C)[C@@H]12`, the EC50 is 3.2 µM in assay [1]; 5.1 µM in [2]; 3.9 µM in assay [3]; 3.6 µM in [4]; 4 µM in [5]; 3.5 µM in assay [6].
For `CC(=O)[C@@H]1CC[C@]2(N)CC[C@]3(C)[C@H](CC[C@@H]4[C@@]5(C)CC[C@H](O)C(C)(C)[C@@H]5CC[C@]43C)[C@@H]12`, the half-maximal effective concentration (EC50) in [1] was over 30 µM; in assay [2] it was over 30 µM; in assay [3], 18.7 µM; in [4], over 30 µM; in assay [5], over 30 µM; in [6], 27.5 µM.
Consider `C[C@@H](N)[C@@H]1CC[C@]2(CO)CC[C@]3(C)[C@H](CC[C@@H]4[C@@]5(C)CC[C@H](O)C(C)(C)[C@@H]5CC[C@]43C)[C@@H]12`, for which the EC50 in [1] was over 30 µM; in assay [2] it was over 30 µM; in [3], 20.3 µM; in assay [4], 23.7 µM; in [5], over 30 µM; in assay [6], 16 µM.

Values taken from ChEMBL document CHEMBL4130577, “Platanic acid: A new scaffold for the synthesis of cytotoxic agents” (Eur J Med Chem, 2018).
